In the NIST ThermoML archive (doi:10.1007/s10765-006-0063-0):

Legend:
[1] = xn = mol fraction of the nth substance listed; details: 101 kPa, Liquid, Sing-around technique in a fixed-path interferometer
[2] = 101.33 kPa, Liquid; for speed of sound: Sing-around technique in a fixed-path interferometer

C1COCCO1 [1,4-dioxane] + c1ccccc1
[1]
Details | speed of sound [m/s]
283.15 K, x1 = 0.0521 | 1370.8
283.15 K, x1 = 0.0942 | 1372.6
283.15 K, x1 = 0.1987 | 1376.5
283.15 K, x1 = 0.2956 | 1380.2
283.15 K, x1 = 0.3936 | 1383.8
283.15 K, x1 = 0.4947 | 1387.4
283.15 K, x1 = 0.5964 | 1391.1
283.15 K, x1 = 0.6956 | 1395.1
283.15 K, x1 = 0.7963 | 1399.3
283.15 K, x1 = 0.8949 | 1404.1
283.15 K, x1 = 0.9526 | 1407.1
298.15 K, x1 = 0.0516 | 1300.8
298.15 K, x1 = 0.0888 | 1302.4
298.15 K, x1 = 0.1966 | 1307.3
298.15 K, x1 = 0.316 | 1312.2
298.15 K, x1 = 0.4145 | 1316.3
298.15 K, x1 = 0.5004 | 1320
298.15 K, x1 = 0.5975 | 1324.1
298.15 K, x1 = 0.6932 | 1328.4
298.15 K, x1 = 0.7962 | 1333.1
298.15 K, x1 = 0.8938 | 1338
298.15 K, x1 = 0.9535 | 1341.1
313.15 K, x1 = 0.0568 | 1232.1
313.15 K, x1 = 0.0913 | 1233.6
313.15 K, x1 = 0.2021 | 1239.2
313.15 K, x1 = 0.2963 | 1243.7
313.15 K, x1 = 0.3981 | 1248.6
313.15 K, x1 = 0.4975 | 1253.1
313.15 K, x1 = 0.5981 | 1257.9
313.15 K, x1 = 0.6972 | 1262.7
313.15 K, x1 = 0.7941 | 1267.5
313.15 K, x1 = 0.9034 | 1273.3
313.15 K, x1 = 0.9424 | 1275.5

c1ccccc1 [benzene]
[2]
Details | mass density [kg/m3] | speed of sound [m/s]
283.15 K | 889.9 | 1368.7
298.15 K | 873.5 | 1298.3
313.15 K | 857.5 | 1229.5

C1CCCCC1 [cyclohexane]
[2]
Details | mass density [kg/m3] | speed of sound [m/s]
283.15 K | 788 | 1327.8
298.15 K | 773.7 | 1254.4
313.15 K | 759.6 | 1181.1

C1CCCC1 [cyclopentane]
[2]
Details | mass density [kg/m3] | speed of sound [m/s]
283.15 K | 754.9 | 1283.5
298.15 K | 739.7 | 1206.6
313.15 K | 724.7 | 1129.9

C1CCCC1 [cyclopentane] + C1COCCO1
[1]
Details | speed of sound [m/s]
283.15 K, x2 = 0.0516 | 1280.7
283.15 K, x2 = 0.095 | 1279.4
283.15 K, x2 = 0.1944 | 1280.5
283.15 K, x2 = 0.2987 | 1286
283.15 K, x2 = 0.3973 | 1294.2
283.15 K, x2 = 0.499 | 1305.8
283.15 K, x2 = 0.6003 | 1320.5
283.15 K, x2 = 0.7063 | 1339.6
283.15 K, x2 = 0.8072 | 1361
283.15 K, x2 = 0.9076 | 1385.1
283.15 K, x2 = 0.9528 | 1397
298.15 K, x2 = 0.0488 | 1204.5
298.15 K, x2 = 0.0945 | 1203.8
298.15 K, x2 = 0.1818 | 1205.5
298.15 K, x2 = 0.2983 | 1211.9
298.15 K, x2 = 0.3959 | 1221.4
298.15 K, x2 = 0.4962 | 1234.1
298.15 K, x2 = 0.6067 | 1251.5
298.15 K, x2 = 0.7034 | 1269.8
298.15 K, x2 = 0.811 | 1293.3
298.15 K, x2 = 0.9025 | 1316.4
298.15 K, x2 = 0.9506 | 1329.6
313.15 K, x2 = 0.0449 | 1128.5
313.15 K, x2 = 0.094 | 1128.3
313.15 K, x2 = 0.195 | 1131.3
313.15 K, x2 = 0.2962 | 1138.6
313.15 K, x2 = 0.3969 | 1149.5
313.15 K, x2 = 0.4983 | 1163.6
313.15 K, x2 = 0.5994 | 1180.8
313.15 K, x2 = 0.6987 | 1200.2
313.15 K, x2 = 0.8026 | 1223.8
313.15 K, x2 = 0.9066 | 1250.8
313.15 K, x2 = 0.9482 | 1263

C1CCCC1 [cyclopentane] + C1COCO1
[1]
Details | speed of sound [m/s]
283.15 K, x2 = 0.101 | 1277.3
283.15 K, x2 = 0.2019 | 1275.8
283.15 K, x2 = 0.3024 | 1278.6
283.15 K, x2 = 0.4023 | 1285
283.15 K, x2 = 0.5028 | 1295.3
283.15 K, x2 = 0.6 | 1307.9
283.15 K, x2 = 0.6995 | 1325.7
283.15 K, x2 = 0.796 | 1347.3
283.15 K, x2 = 0.8999 | 1375.7
298.15 K, x2 = 0.0998 | 1201.4
298.15 K, x2 = 0.1993 | 1200.8
298.15 K, x2 = 0.3005 | 1204.5
298.15 K, x2 = 0.4041 | 1212
298.15 K, x2 = 0.5024 | 1222.7
298.15 K, x2 = 0.6002 | 1236.4
298.15 K, x2 = 0.7004 | 1255.5
298.15 K, x2 = 0.7988 | 1278.8
298.15 K, x2 = 0.8992 | 1307.4
313.15 K, x2 = 0.1028 | 1125.3
313.15 K, x2 = 0.2032 | 1125.9
313.15 K, x2 = 0.3014 | 1130.2
313.15 K, x2 = 0.403 | 1138.5
313.15 K, x2 = 0.5008 | 1150
313.15 K, x2 = 0.6008 | 1165.5
313.15 K, x2 = 0.6991 | 1184.8
313.15 K, x2 = 0.7991 | 1209
313.15 K, x2 = 0.8987 | 1237.8
